How the values were obtained:
Type in all cases: in vivo, human
[1] = system: AMD patients; experiment: Visual acuity, standard Snellen or ETDRS eye chart
Source text: (§1) Table 2 provides detailed information regarding patients 1 to 7, including the baseline diagnosis (diagnosis made when starting statin therapy), ending diagnosis (the diagnosis made on the date of the last referenced evaluation), the results of evaluations performed on each patient, and whether the patient responded to statin therapy. The dark adaptation data in this Example is the rod intercept time (or RI time) reported in minutes. In this Example, the dark adaptation data was collected using the AdaptDx® Dark Adaptometer (MacuLogix, Middletown, PA) running its standard Extended Test protocol. […] Data is automatically analyzed by the AdaptDx Dark Adaptometer to provide an RI time based on recovery to a criterion sensitivity level of 5×10^−3 scotopic cd/m^2. […] The visual acuity data was collected using a standard Snellen or ETDRS eye chart with the results presented using the standard 20/20 vision scale. Drusen resolution was determined by evaluation of fundus and OCT imaging by qualified clinicians experienced in AMD evaluation. Fundus and OCT imaging data was collected using the Heidelberg Engineering Spectralis® SD-OCT (Heidelberg, Germany) or the Karl Zeiss Meditec Cirrus® HD-OCT (Jena, Germany), in both cases running standard protocols with automated data analysis performed by the instruments.

[2] = system: AMD patients; experiment: Clinical assessment of AMD diagnosis and response to statin therapy
Source text: AMD status has been determined in the art using a number of recognized grading systems, such as the Beckman AMD Classification System, the Age-Related Eye Disease Study (AREDS) Severity Scale, the AREDS Simplified Severity Scale, the International Classification and Grading System for AMD, and the Wisconsin Age-Related Maculopathy Grading System. When a determination of AMD status is required for a subject, the determination of AMD status is made using the Beckman AMD Classification System (Ferris et al. Ophthalmology 2013; 120:844-851).
as §1
The baseline diagnosis and ending diagnosis are the result of clinical assessment by qualified clinicians experienced in evaluation of AMD patients. The clinical assessment was carried out utilizing standard ophthalmic testing, such as, but not limited to, slit-lamp biomicroscopy (including looking for evidence of drusen and pigmentary changes), fundus and OCT imaging (including looking for evidence of drusen and pigmentary changes and calculation of retinal volume and retinal thickness), and testing with a Snellen or ETDRS eye chart (including looking for visual acuity changes that might indicate a change in disease status). Dark adaptation results were not used in the clinical assessment of the baseline or ending diagnosis.
Patients 1, 3-5 and 7 were determined to be non-responders to statin treatment as the initial diagnosis was unchanged after treatment and clinical evaluation. […] For patient 2, RI time improved by 1.67 minutes OD and 2.60 minutes OS agreeing with the clinical assessment of a response to statin therapy (i.e., improving clinically). Patient 6 could not be clearly classified as a responder or non-responder to statin treatment. […] For patient 6, RI time decreased by 2.2 minutes OD, agreeing with the initial clinical signs of a response to statin therapy.

[3] = system: AMD patients; experiment: Dark adaptation testing, rod intercept (RI) time, AdaptDx Dark Adaptometer Extended Test protocol; conditions: for Improvement in RI time: Patient 2, atorvastatin 80 mg/day, July 2018 vs January 2015
Source text: Dark adaptation is preferably measured using devices known in the art, for example as described in U.S. Pat. No. 7,494,222. […] Briefly, the methods of the prior art as described therein, while sitting in complete or near-complete darkness the subject is first exposed to a bright photobleaching light to photobleach one or more of the visual pigments. This is followed by exposure to a series of dim stimulus lights to track visual sensitivity recovery from the photobleach. The intensity of the stimulus lights is gradually […] (generally in a staircase fashion), and the subject indicates whether each stimulus light presentation is detectable (e.g., by pushing a response button) or not detectable (e.g., by failing to push the response button). The just-detectible stimulus light intensity and the time at which it is detected are periodically recorded to generate a dark adaptation threshold curve. Finally, the speed of dark adaption is characterized by a parameter extracted from the threshold curve such as the rod intercept time or the rod-cone break time.
as §1

[4] = Patient #4, atorvastatin 80 mg/day, OD, month 0 (May 2018), baseline
[5] = Patient #4, atorvastatin 80 mg/day, OS, month 0 (May 2018), baseline
[6] = Patient #5, atorvastatin 80 mg/day from January 2014, OD, month 0 (January 2014), baseline
[7] = Patient #5, atorvastatin 80 mg/day from January 2014, OS, month 0 (January 2014), baseline

## CC(C)c1c(C(=O)Nc2ccccc2)c(-c2ccccc2)c(-c2ccc(F)cc2)n1CC[C@@H](O)C[C@@H](O)CC(=O)O [atorvastatin]
[1]; Patient #1, atorvastatin 20 to 80 mg/day, OD, month 0 (July 2013), baseline
  VA (visual acuity): VA 20/25
[1]; Patient #1, atorvastatin 20 to 80 mg/day, OD, month 59 (June 2018)
  VA (visual acuity): VA 20/25
[1]; Patient #1, atorvastatin 20 to 80 mg/day, OS, month 0 (July 2013), baseline
  VA (visual acuity): VA 20/32
[1]; Patient #1, atorvastatin 20 to 80 mg/day, OS, month 59 (June 2018)
  VA (visual acuity): VA 20/25
[1]; Patient #2, atorvastatin 80 mg/day, OD, month 64 (May 2018)
  VA (visual acuity): VA 20/30
[1]; Patient #2, atorvastatin 80 mg/day, OS, month 64 (May 2018)
  VA (visual acuity): VA 20/20
[1]; [4]
  VA (visual acuity): VA 20/200
[1]; Patient #4, atorvastatin 80 mg/day, OD, month 3 (August 2018)
  VA (visual acuity): VA 20/200
[1]; [5]
  VA (visual acuity): VA 20/20
[1]; Patient #4, atorvastatin 80 mg/day, OS, month 3 (August 2018)
  VA (visual acuity): VA 20/20
[1]; [6]
  VA (visual acuity): VA 20/25
[1]; [7]
  VA (visual acuity): VA 20/25
[2]; Patient #1, atorvastatin 20 to 80 mg/day from July 2013, OD, month 0 (July 2013), baseline
  Diagnosis: Intermediate AMD
[2]; Patient #1, atorvastatin 20 to 80 mg/day from July 2013, OS, month 0 (July 2013), baseline
  Diagnosis: Intermediate AMD
[2]; Patient #1, atorvastatin 20 to 80 mg/day, OD, month 60 (July 2018), ending diagnosis
  Diagnosis: Intermediate AMD
[2]; Patient #1, atorvastatin 20 to 80 mg/day, OS, month 60 (July 2018), ending diagnosis
  Diagnosis: Intermediate AMD
[2]; Patient #1, atorvastatin 20 to 80 mg/day, month 60 (July 2018)
  Responder: No
[2]; Patient #2, atorvastatin 80 mg/day from January 2013, OD, month 0 (January 2013), baseline
  Diagnosis: Intermediate AMD
[2]; Patient #2, atorvastatin 80 mg/day from January 2013, OS, month 0 (January 2013), baseline
  Diagnosis: Intermediate AMD
[2]; Patient #2, atorvastatin 80 mg/day, OD, month 66 (July 2018), ending diagnosis
  Diagnosis: Early AMD
[2]; Patient #2, atorvastatin 80 mg/day, OS, month 66 (July 2018), ending diagnosis
  Diagnosis: Early AMD
[2]; Patient #2, atorvastatin 80 mg/day, month 66 (July 2018)
  Responder: Yes
[2]; Patient #3, atorvastatin 80 mg/day from October 2016, OD, month 0 (October 2016), baseline
  Diagnosis: Late AMD (CNV)
[2]; Patient #3, atorvastatin 80 mg/day, OD, month 20 (June 2018), ending diagnosis
  Diagnosis: Late AMD (CNV)
[2]; Patient #3, atorvastatin 80 mg/day, month 20 (June 2018)
  Responder: No
[2]; Patient #4, atorvastatin 80 mg/day from May 2018, OD, month 0 (May 2018), baseline
  Diagnosis: Late AMD (GA)
[2]; Patient #4, atorvastatin 80 mg/day from May 2018, OS, month 0 (May 2018), baseline
  Diagnosis: Intermediate AMD
[2]; Patient #4, atorvastatin 80 mg/day, OD, month 4 (September 2018), ending diagnosis
  Diagnosis: Late AMD (GA)
[2]; Patient #4, atorvastatin 80 mg/day, OS, month 4 (September 2018), ending diagnosis
  Diagnosis: Intermediate AMD
[2]; Patient #4, atorvastatin 80 mg/day, month 4 (September 2018)
  Responder: No
[2]; Patient #5, atorvastatin 80 mg/day (suspended January 2015-February 2016), then 20 mg/day, pravastatin 20 mg/day from April 2018, OD, month 52 (June 2018), ending diagnosis
  Diagnosis: Intermediate AMD
[2]; Patient #5, atorvastatin 80 mg/day (suspended January 2015-February 2016), then 20 mg/day, pravastatin 20 mg/day from April 2018, OS, month 52 (June 2018), ending diagnosis
  Diagnosis: Intermediate AMD
[2]; Patient #5, atorvastatin 80 mg/day (suspended January 2015-February 2016), then 20 mg/day, pravastatin 20 mg/day from April 2018, month 52 (June 2018)
  Responder: No
[2]; [6]
  Diagnosis: Intermediate AMD
[2]; [7]
  Diagnosis: Intermediate AMD
[2]; Patient #6, atorvastatin 80 mg/day from November 2017, OD, month 0 (November 2017), baseline
  Diagnosis: Intermediate AMD
[2]; Patient #6, atorvastatin 80 mg/day from November 2017, OS, month 0 (November 2017), baseline
  Diagnosis: Intermediate AMD
[2]; Patient #6, atorvastatin 80 mg/day, OD, month 9 (August 2018), ending diagnosis
  Diagnosis: Intermediate AMD
[2]; Patient #6, atorvastatin 80 mg/day, OS, month 9 (August 2018), ending diagnosis
  Diagnosis: Intermediate AMD
[2]; Patient #6, atorvastatin 80 mg/day, month 9 (August 2018)
  Responder: Maybe
[2]; Patient #7, atorvastatin 10 to 20 mg/day from April 2016, OD, month 0 (April 2016), baseline
  Diagnosis: Intermediate AMD
[2]; Patient #7, atorvastatin 10 to 20 mg/day from April 2016, OS, month 0 (April 2016), baseline
  Diagnosis: Intermediate AMD
[2]; Patient #7, atorvastatin 10 to 20 mg/day, OD, month 27 (July 2018), ending diagnosis
  Diagnosis: Intermediate AMD
[2]; Patient #7, atorvastatin 10 to 20 mg/day, OS, month 27 (July 2018), ending diagnosis
  Diagnosis: Intermediate AMD
[2]; Patient #7, atorvastatin 10 to 20 mg/day, month 27 (July 2018)
  Responder: No
[3]; OD
  Improvement in RI time: 1.67 min
[3]; OS
  Improvement in RI time: 2.60 min
[3]; Patient 5, atorvastatin 80 then 20 mg/day, pravastatin 20 mg/day from April 2018, left eye, June 2018 vs October 2015
  Change in RI time: essentially unchanged
[3]; Patient 5, atorvastatin 80 then 20 mg/day, pravastatin 20 mg/day from April 2018, right eye, June 2018 vs October 2015
  Increase in RI time: 7.51 min
[3]; Patient #1, atorvastatin 20 to 80 mg/day, OD, month 24 (July 2015)
  RI (rod intercept time): RI > 20 minutes
[3]; Patient #1, atorvastatin 20 to 80 mg/day, OD, month 60 (July 2018)
  RI (rod intercept time): RI > 20 minutes
[3]; Patient #1, atorvastatin 20 to 80 mg/day, OS, month 24 (July 2015)
  RI (rod intercept time): RI = 17.13 minutes
[3]; Patient #1, atorvastatin 20 to 80 mg/day, OS, month 60 (July 2018)
  RI (rod intercept time): RI > 20 minutes
[3]; Patient #2, atorvastatin 80 mg/day, OD, month 24 (January 2015)
  RI (rod intercept time): RI = 18.72 minutes
[3]; Patient #2, atorvastatin 80 mg/day, OD, month 66 (July 2018)
  RI (rod intercept time): RI = 17.05 minutes
[3]; Patient #2, atorvastatin 80 mg/day, OS, month 24 (January 2015)
  RI (rod intercept time): RI = 9.88 minutes
[3]; Patient #2, atorvastatin 80 mg/day, OS, month 66 (July 2018)
  RI (rod intercept time): RI = 7.28 minutes
[3]; Patient #3, atorvastatin 80 mg/day, OD, month 8 (June 2017)
  RI (rod intercept time): RI > 20 minutes
[3]; Patient #3, atorvastatin 80 mg/day, OD, month 20 (June 2018)
  RI (rod intercept time): RI > 20 minutes
[3]; Patient #3, atorvastatin 80 mg/day, OS, month 8 (June 2017)
  RI (rod intercept time): RI > 20 minutes
[3]; Patient #3, atorvastatin 80 mg/day, OS, month 20 (June 2018)
  RI (rod intercept time): RI > 20 minutes
[3]; [4]
  RI (rod intercept time): RI > 20 minutes
[3]; Patient #4, atorvastatin 80 mg/day, OD, month 4 (September 2018)
  RI (rod intercept time): RI > 20 minutes
[3]; [5]
  RI (rod intercept time): RI > 20 minutes
[3]; Patient #4, atorvastatin 80 mg/day, OS, month 4 (September 2018)
  RI (rod intercept time): RI > 20 minutes
[3]; Patient #5, atorvastatin 80 mg/day (suspended January 2015-February 2016), then 20 mg/day, pravastatin 20 mg/day from April 2018, OD, month 52 (June 2018)
  RI (rod intercept time): RI = 17.19 minutes
[3]; Patient #5, atorvastatin 80 mg/day (suspended January 2015-February 2016), then 20 mg/day, pravastatin 20 mg/day from April 2018, OS, month 52 (June 2018)
  RI (rod intercept time): RI = 10.81 minutes
[3]; Patient #5, atorvastatin 80 mg/day January 2014 to January 2015, therapy suspended until February 2016, OD, month 21 (October 2015)
  RI (rod intercept time): RI = 9.68 minutes
[3]; Patient #5, atorvastatin 80 mg/day January 2014 to January 2015, therapy suspended until February 2016, OS, month 21 (October 2015)
  RI (rod intercept time): RI = 11.04 minutes
[3]; Patient #6, atorvastatin 80 mg/day from November 2017, OD, month −3 (August 2017), before initiation
  RI (rod intercept time): RI = 5.75 minutes
[3]; Patient #6, atorvastatin 80 mg/day, OD, month 9 (August 2018)
  RI (rod intercept time): RI = 2.55 minutes
[3]; Patient #7, atorvastatin 10 to 20 mg/day, OD, month 0 (April 2016), baseline
  RI (rod intercept time): RI > 20 minutes
[3]; Patient #7, atorvastatin 10 to 20 mg/day, OD, month 27 (July 2018)
  RI (rod intercept time): RI > 20 minutes
[3]; Patient #7, atorvastatin 10 to 20 mg/day, OS, month 0 (April 2016), baseline
  RI (rod intercept time): RI > 20 minutes
[3]; Patient #7, atorvastatin 10 to 20 mg/day, OS, month 27 (July 2018)
  RI (rod intercept time): RI > 20 minutes
